Earlier results, collected in patent publication US5648564A, “Process for the formation, isolation and purification of comestible xanthophyll crystals from plants” (Kemin Industries, Inc., priority 1995, dated 1997).

System: rat
Details: oral

Compound | LD50 [mL/kg]
ClC(Cl)Cl [Chloroform] | 2.18
CCOC(C)=O [Ethyl Acetate] | 11.3
c1ccncc1 [Pyridine] | 1.58
CC(O)CO (stereo not drawn) [Propylene Glycol, 1,2-propanediol] | 25

System: not given
Details: consumption of lutein and zeaxanthin (reported jointly)

Compound | reduction in age-related macular degeneration [%]
CC1=C(/C=C/C(C)=C/C=C/C(C)=C/C=C/C=C(C)/C=C/C=C(C)/C=C/C2=C(C)C[C@@H](O)CC2(C)C)C(C)(C)C[C@H](O)C1 [zeaxanthin] | 40
CC1=C[C@H](O)CC(C)(C)[C@H]1/C=C/C(C)=C/C=C/C(C)=C/C=C/C=C(C)/C=C/C=C(C)/C=C/C1=C(C)C[C@@H](O)CC1(C)C [lutein] | 40
